Source: patent US7893064B2, “Hydrazone derivatives as kinase inhibitors” (Janssen Pharmaceutica NV, priority 2006, dated 2011)

Columns and labels:
[1] = target: T1, EGFR kinase (GST fusion of intracellular portion of EGFR, NM_005228) (Homo sapiens, UniProt P00533); assay: EGFR Kinase Assay; assay type: biochemical; details: GSTEGFR, ATP 5 μM, biotinylated polyGluTyr, 33P Flashplate; read-out: EGFR Inhibition (%) IC50
T1 construct: The intracellular portion of EGFR started at nucleotide 2189 (corresponding to amino acid 667) and ended at the termination codon; made in house; host or cells: Sf9 insect cells (baculovirus)
T1 sequence (P00533 669-1210 limits assumed): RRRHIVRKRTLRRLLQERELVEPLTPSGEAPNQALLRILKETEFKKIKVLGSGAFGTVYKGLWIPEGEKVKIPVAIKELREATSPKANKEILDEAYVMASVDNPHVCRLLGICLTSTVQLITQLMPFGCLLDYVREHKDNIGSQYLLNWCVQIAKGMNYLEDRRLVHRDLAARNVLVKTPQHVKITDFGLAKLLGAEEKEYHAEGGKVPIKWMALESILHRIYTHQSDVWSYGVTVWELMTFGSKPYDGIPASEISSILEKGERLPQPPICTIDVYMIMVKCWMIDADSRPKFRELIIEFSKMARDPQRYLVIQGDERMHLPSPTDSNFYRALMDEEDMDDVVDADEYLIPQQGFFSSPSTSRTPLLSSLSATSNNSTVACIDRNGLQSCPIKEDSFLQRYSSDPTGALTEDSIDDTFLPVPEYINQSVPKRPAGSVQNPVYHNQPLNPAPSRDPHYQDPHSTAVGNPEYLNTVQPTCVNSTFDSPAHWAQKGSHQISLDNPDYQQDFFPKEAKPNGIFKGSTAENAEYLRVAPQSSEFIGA
Excerpt: The portion was PCR amplified with primers that added the lambda attB sequences to each end, recombined into an entry vector, then into a GST destination vector (as described in Gateway Technologies Manual by Invitrogen Corporation, Carlsbad, Calif.).
The destination vector was recombined in the DH10BAC strain of bacteria to produce a bacmid. The bacmid was transfected into Sf9 cells and the supernatant containing the baculovirus was collected. The GSTEGFR protein was purified using large cultures of Sf9 cells infected with stock virus. After an appropriate period of time, the cells were collected and lysed. The GSTEGFR was then purified from the lysate on Glutathione-Sepharose columns (as described by Amersham Biosciences, Buckinghamshire, United Kingdom).
The free biotin was separated from the biotinylated polyGluTyr on a gel filtration column.
A mixture of a 10× kinase buffer (500 mM Tris at pH 8.0, 100 mM Magnesium Chloride and 1 mM Sodium Vanadate), DTT (1 mM final from 500 mM stock), ATP (5 μM final from 10 mM stock), biotinylated polyGluTyr (10 μg/μL stock), γ-^33P ATP (10 μCi/μL stock) and water was added to each well (90 μL/well) of a Streptavidin Flashplate (Perkin Elmer, Wellesley, Mass.).
Test compound in 100% DMSO (2 μL) was added to the appropriate wells. Diluted GSTEGFR (1:300 dilution in 50 mM Tris at pH 8.0 and 0.1% bovine serum albumin) (10 μL) was added to the wells to initiate the reactions.
The plates were incubated at 30° C. for 1 hr with shaking. The reacted contents were removed and the plates were sequentially washed three times with a 1×PBS stop buffer (300 μL without Magnesium and Calcium) and 100 mM EDTA. After the final wash, the same stop buffer (200 μL) was added to the wells. The plates were then sealed and read on the TopCount scintillation counter.
Test compounds were assayed in triplicate at 16 concentrations at half-log dilutions starting at 200 uM. A maximum and minimum signal for the assay was determined on each plate. The percent inhibition of a test compound was calculated according to the formula
For a series of test concentrations, the IC50 was derived by graphing percent inhibition against the log of the concentrations tested for a given compound.

[2] = target: T2, HER2 (GST-HIS6-Thrombin fusion, amino acids 679 to 1255 of HER-2) (Homo sapiens, UniProt P04626); assay: HER2 Screening Assay; assay type: biochemical; details: 10 μM ATP, biotin-poly(GT) 4:1, 33P FlashPlate
T2 construct: GST (N); HIS6 (N); thrombin cleavage site (N); purchased Proqinase, Freiburg, Germany
T2 sequence (P04626 679-1255): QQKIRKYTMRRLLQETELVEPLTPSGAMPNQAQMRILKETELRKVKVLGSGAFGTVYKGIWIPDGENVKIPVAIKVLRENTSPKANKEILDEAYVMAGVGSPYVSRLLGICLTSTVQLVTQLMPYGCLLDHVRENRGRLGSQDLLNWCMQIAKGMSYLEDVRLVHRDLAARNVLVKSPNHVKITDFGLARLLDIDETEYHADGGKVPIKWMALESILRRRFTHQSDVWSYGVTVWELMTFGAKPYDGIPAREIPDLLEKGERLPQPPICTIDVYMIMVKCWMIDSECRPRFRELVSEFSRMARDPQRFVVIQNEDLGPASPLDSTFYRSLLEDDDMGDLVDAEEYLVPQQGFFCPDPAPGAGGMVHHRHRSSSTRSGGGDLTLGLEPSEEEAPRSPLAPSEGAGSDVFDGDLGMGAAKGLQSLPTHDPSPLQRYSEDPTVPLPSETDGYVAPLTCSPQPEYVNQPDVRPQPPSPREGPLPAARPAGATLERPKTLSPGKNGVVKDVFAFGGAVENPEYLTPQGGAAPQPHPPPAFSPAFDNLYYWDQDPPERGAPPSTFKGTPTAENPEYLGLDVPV
Experimental: A kinase reaction mixture was prepared containing 50 mM Tris-HCl pH=8, 10 mM MgCl2, 0.1 mM […], 1 mM DTT, 10 μM ATP, 0.025 μM biotinylated histone-H1 peptide substrate and 0.2 μCuries per well ^33P-γ-ATP (2000-3000 Ci/mmol). 70 μL of the kinase reaction mixture was dispensed into the well of a streptavidin coated FlashPlate™ (Cat. # SMP103, NEN, Boston, Mass.).
Test compound stock in 100% DMSO (1 μL) was added to the wells resulting in a final concentration of 1% DMSO in the reaction with a 100 μL final reaction volume. Each enzyme was diluted in 50 mM Tris-HCl pH=8.0, 0.1% BSA and 30 μL was added to each well to initiate the reaction. The reaction was incubated for one hour at 30° C. At the end of the 1 hr incubation, the reaction was terminated by aspirating the mixture from the plate and washing the wells twice with PBS containing 100 mM EDTA. The biotinylated peptide substrate became immobilized on the Flashplate™ and the incorporation of ^33P-γ-ATP was measured by reading the plate on a scintillation counter. Inhibition of the enzymatic activity was measured by observing a reduced amount of ^33P-γ-ATP incorporated into the immobilized peptide.
The HER2 construct consisted of a fusion of GST (Glutathione-S-Transferase), HIS6 Thrombin and the nucleotides encoding amino acids 679 to 1255 of HER-2 (Accession number M11730) (Proqinase, Freiburg, Germany). The assay used 200 ng of the N-terminal biotinylated peptide biotin-poly(GT) 4:1 (HER2) per well.
A maximum and minimum signal for the assay was determined on each plate. The percent inhibition of a test compound was calculated according to the formula: […]
For a series of test concentrations, the IC50 was derived by graphing percent inhibition against the log of the concentrations tested for a given compound with results shown in Table 2.

[3] = system: BT474 breast carcinoma cells; assay: Cell Proliferation Inhibition Assay (14C-thymidine incorporation), BT-474; assay type: cell-based; details: Homo sapiens, BT-474 cells
Excerpt: (§1) The ability of a test compound to inhibit unregulated cell proliferation may be determined by measuring incorporation of ^14C-labelled thymidine into newly synthesized DNA within cell lines derived from carcinomas originating from several tissues. Accordingly, the anti-proliferative effect of a compound on cells with a variety of phenotypes may be determined.
(§2) Carcinoma cell lines were obtained from the American Type Culture Collection (ATCC) and include those such as N87 (ATCC Cat. #), SKBR3 breast carcinoma (ATCC Cat. #HTB-30) and BT474 breast carcinoma (ATCC Cat. #HTB-20)
(§3) The carcinoma cells are trypsinized and counted. The cells (3000-8000 count) are added to each well of a 96-well CytoStar tissue culture treated scintillating microplate (Amersham #RPNQ0160) in complete medium (100 μL) and the plate is then incubated in complete medium for 24 hrs at 37° C. in an inert atmosphere containing 5% CO2. Test compound (1 μL) in 100% DMSO is added to the plate test-wells with DMSO only added to control-wells. The plate is incubated in complete medium for a second 24 hr period at 37° C. in an atmosphere containing 5% CO2.
(§4) An aliquot of a solution of Methyl ^14C-thymidine (56 mC/mmol) (NEN #NEC568 or Amersham #CFA532) and complete medium (20 μL to provide 0.2 μCi/well) is then added to each well and the plate is incubated for a third 24 hr period at 37° C. in an atmosphere containing 5% CO2. The plate contents are then discarded, the plate is washed twice with PBS (200 μL) and then PBS (200 μL) is added to each well. The plate is sealed and the degree of methyl ^14C-thymidine incorporation is quantified on a Packard Top Count.

N87 carcinoma cells = assay: Cell Proliferation Inhibition Assay (14C-thymidine incorporation), N87; assay type: cell-based
Excerpt: as §1, §2, §3, §4

[4] = system: SKBR3 breast carcinoma cells; assay: Cell Proliferation Inhibition Assay (14C-thymidine incorporation), SK-BR-3; assay type: cell-based; details: Homo sapiens, SK-BR-3 cells
Excerpt: as §1, §2, §3, §4

Structure (SMILES) | IC50 [1] [nM] | IC50 [2] [nM] | IC50 [3] [nM] | IC50 (N87 carcinoma cells) [nM] | IC50 [4] [nM]
CNN=Cc1c(N)ncnc1Nc1ccc2c(cnn2Cc2cccc(F)c2)c1 [Cpd 2, N-[1-(3-fluoro-benzyl)-1H-indazol-5-yl]-5-(methyl-hydrazonomethyl)-pyrimidine-4,6-diamine] | 12.4 | 83.6 |  |  | 
Nc1ncnc(Nc2ccc3c(cnn3Cc3cccc(F)c3)c2)c1C=NN1CCCCC1 [Cpd 3, N-[1-(3-fluoro-benzyl)-1H-indazol-5-yl]-5-(piperidin-1-yliminomethyl)-pyrimidine-4,6-diamine] |  | 18.3 | 48.5 | 365 | 691
CN1CCN(N=Cc2c(N)ncnc2Nc2ccc3c(cnn3Cc3cccc(F)c3)c2)CC1 [Cpd 6, N-[1-(3-fluoro-benzyl)-1H-indazol-5-yl]-5-[(4-methyl-piperazin-1-ylimino)-methyl]-pyrimidine-4,6-diamine] | 15.6 | 8.4 |  |  | 
COC[C@H]1CCCN1N=Cc1c(N)ncnc1Nc1ccc2c(cnn2Cc2cccc(F)c2)c1 [Cpd 7, N-[1-(3-fluoro-benzyl)-1H-indazol-5-yl]-5-{[(2R)-2-methoxymethyl-pyrrolidin-1-ylimino]-methyl}-pyrimidine-4,6-diamine] | 31.2 | 72.2 |  |  | 

More lines, now with the values ahead:

IC50 [1] [nM] | IC50 [2] [nM] | IC50 [3] [nM] | IC50 (N87 carcinoma cells) [nM] | IC50 [4] [nM] | Structure (SMILES)
49 | 118 |  |  |  | COc1ccc(NN=Cc2c(N)ncnc2Nc2ccc3c(cnn3Cc3cccc(F)c3)c2)cc1 [Cpd 1, N-[1-(3-fluoro-benzyl)-1H-indazol-5-yl]-5-[(4-methoxy-phenyl)-hydrazonomethyl]-pyrimidine-4,6-diamine]
16.5 | 6.6 | 30.5 | 90.5 | 122 | Nc1ncnc(Nc2ccc3c(cnn3Cc3cccc(F)c3)c2)c1C=NN1CCOCC1 [Cpd 4, N-[1-(3-fluoro-benzyl)-1H-indazol-5-yl]-5-(morpholin-4-yliminomethyl)-pyrimidine-4,6-diamine]
8.2 | 2.4 | 63 | 131 | 148 | CN(C)/N=C/c1c(N)ncnc1Nc1ccc2c(cnn2Cc2cccc(F)c2)c1 [Cpd 5, 5-(dimethyl-hydrazonomethyl)-N-[1-(3-fluoro-benzyl)-1H-indazol-5-yl]-pyrimidine-4,6-diamine]
26.5 | 38.8 |  |  |  | COC[C@@H]1CCCN1N=Cc1c(N)ncnc1Nc1ccc2c(cnn2Cc2cccc(F)c2)c1 [Cpd 8, N-[1-(3-fluoro-benzyl)-1H-indazol-5-yl]-5-{[(2S)-2-methoxymethyl-pyrrolidin-1-ylimino]-methyl}-pyrimidine-4,6-diamine]
9.77 | 8.37 | 13.5 | 58.4 | 58.5 | Nc1ncnc(Nc2ccc3c(cnn3Cc3cccc(F)c3)c2)c1C=NN1CCN(CCO)CC1 [Cpd 9, 2-[4-({4-amino-6-[1-(3-fluoro-benzyl)-1H-indazol-5-ylamino]-pyrimidin-5-ylmethylene}-amino)-piperazin-1-yl]-ethanol]
52.9 | 19.8 |  |  |  | Nc1ncnc(Nc2ccc3c(cnn3Cc3cccc(F)c3)c2)c1C=NNCC(F)(F)F [Cpd 10, N-[1-(3-fluoro-benzyl)-1H-indazol-5-yl]-5-[(2,2,2-trifluoro-ethyl)-hydrazonomethyl]-pyrimidine-4,6-diamine]
